Data published in patent publication US20110152210A1, “POLYPHENOL COMPOUNDS FOR INHIBITING PROTEASOME AND USES THEREOF” (THE ROYAL INSTITUTION FOR THE ADVANCEMENT OF …, priority 2009, published 2011).
Entries after “also recorded” stand apart in the source; their conditions may differ.

How the values were obtained:
[1] = biological target: T1, Purified rabbit 20S proteasome (Oryctolagus cuniculus, UniProt G1T4Q9); experiment: Inhibition of chymotrypsin-like activity of purified 20S proteasome; format: biochemical; settings: for inhibition of proteasomal chymotryptic activity (in words): 2 h; for IC50: Suc-LLVY-AMC, 2 h at 37° C., read-out: IC50, inhibition of proteasomal chymotrypsin-like activity
T1 sequence (G1T4Q9 60-263): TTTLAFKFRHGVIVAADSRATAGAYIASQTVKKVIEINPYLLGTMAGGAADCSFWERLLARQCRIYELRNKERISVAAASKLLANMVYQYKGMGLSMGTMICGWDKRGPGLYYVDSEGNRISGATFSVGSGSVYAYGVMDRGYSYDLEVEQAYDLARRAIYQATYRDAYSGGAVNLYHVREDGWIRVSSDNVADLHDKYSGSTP
From the text: EGCG was used as a comparative standard. Materials. Purified rabbit 20S proteasome and fluorogenic substrate Suc-LLVY-AMC for the proteasomal chymotrypsinlike (CT-like) activity were obtained from Calbiochem Inc. (San Diego, Calif.). Fetal bovine serum (FBS) was from Tissue Culture Biologicals (Tulare, Calif.). Penicillin and streptomycin were purchased from Invitrogen Co. (Carlsbad, Calif.). RPMI 1640 medium was purchased from Invitrogen Co. (Carlsbad, Calif.). […] Inhibition of purified 20S proteasome activity by EGCG and its analogs.

cancer cell lines = settings: a number of cancer cell lines; cited from earlier work
[2] = test system: human multiple myeloma ARP cells; experiment: MTT assay in multiple myeloma ARP cells, alone or combined with Velcade; format: cell-based; settings: 48 hrs; for effect on cell proliferation in combination with bortezomib (in words): 20 μM with varying doses of Velcade; for inhibition of cell proliferation as single agent (in words): ARP cells
Procedure: The cells were treated with Velcade alone or with 20 μM of compounds 5, 7 and 23 or in combination with varying doses of Velcade for 48 hrs, followed by a MTT assay.
Deep purple color indicates fully viable cells; light purple color indicates a reduced number of viable cells; and yellowish color indicates an absence of viable cells.
MTT assay. Cells were grown in a 96-well plate. Triplicate wells of cells were treated with indicated concentrations of EGCG or EGCG analogs for 24 h. After aspiration of medium, MTT (1 mg/ml) was then added to the cell cultures, followed by incubation for 3 h at 37° C. After cells were crystallized, MTT was removed and DMSO was added to dissolve the metabolized MTT product. The absorbance was then measured on a Wallac Victor3 1420 Multi-label counter at 540 nm.

In the case of CC(=O)Oc1cc(OC(C)=O)c2c(c1)O[C@H](c1cc(OC(C)=O)c(OC(C)=O)c(OC(C)=O)c1)[C@H](OC(=O)c1cc(OC(C)=O)c(OC(C)=O)c(OC(C)=O)c1)C2 [Compound 4, (−)Epigallocatechin gallate octa acetate, reference compound], the “inhibition of proteasomal chymotryptic activity (in words)” value [1] is listed as “none of the resulting derivatives 4, 6, 8, 17 and 22 exhibited proteasomal inhibition” and the “growth inhibitory activity compared to EGCG (1) (in words)” value (cancer cell lines) is listed as “enhanced growth inhibitory activity”.

For O=C(O[C@H]1Cc2ccccc2C[C@H]1OC(=O)c1cc(O)c(O)c(O)c1)c1cc(O)c(O)c(O)c1 [Compound 5], the IC50 [1] was 19 µM and the “effect on cell proliferation in combination with bortezomib (in words)” value [2] was “interfered with; also recorded: partially block the inhibitory effect of bortezomib”.

For O=C(O[C@H]1Cc2ccccc2C[C@H]1OC(=O)c1cc(O)cc(O)c1)c1cc(O)cc(O)c1 [Compound 7], the IC50 [1] was 29 µM, the “effect on cell proliferation in combination with bortezomib (in words)” value [2] was “synergistic inhibitory effect” and the “inhibition of cell proliferation as single agent (in words)” value [2] was “most potent cell proliferation inhibitor”.

For CC(=O)Oc1cc(C(=O)O[C@H]2Cc3ccccc3C[C@H]2OC(C)=O)cc(OC(C)=O)c1OC(C)=O [Compound 17], the “inhibition of proteasomal chymotryptic activity (in words)” value [1] was “none of the resulting derivatives 4, 6, 8, 17 and 22 exhibited proteasomal inhibition”.

For CC(=O)Oc1cc(OC(C)=O)cc(C(=O)O[C@H]2Cc3ccccc3C[C@H]2OC(C)=O)c1 [Compound 22], the “inhibition of proteasomal chymotryptic activity (in words)” value [1] was “none of the resulting derivatives 4, 6, 8, 17 and 22 exhibited proteasomal inhibition”.

With O=C(O[C@@H]1Cc2c(O)cc(O)cc2O[C@@H]1c1cc(O)c(O)c(O)c1)c1cc(O)c(O)c(O)c1 [EGCG, (−)Epigallocatechin gallate, reference compound] the “inhibition of proteasomal chymotryptic activity (in words)” value [1] was “potently inhibited”.

For CC(C)C[C@H](NC(=O)[C@H](Cc1ccccc1)NC(=O)c1cnccn1)B(O)O [bortezomib, reference compound], the “inhibition of cell proliferation as single agent (in words)” value [2] was “reduced cell proliferation in a dose-dependent manner”.
